Target: T1, JNK1α1 (Homo sapiens, UniProt P45983)
T1 construct: catalytic domain containing amino acids 1-364 and N-terminal hexahistidine tag; hexahistidine (His6) (N); made in house; host or cells: E. coli BL21 (DE3)
Assay: Coupled spectrophotometric (PK/LDH) JNK1α1 assay: % inhibition and Ki determination
Format: biochemical
Conditions: @1 uM; read-out: % Inhibition JNK-1
Summary of the method: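 Initial rates were taken from the absorbance decrease at 340 nm at 30° C. Ki was fitted with a tight-binding model over 11 concentrations (top 100 μM); single-point inhibition was tested at 1 or 10 μM.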

T1 sequence (P45983 1-364): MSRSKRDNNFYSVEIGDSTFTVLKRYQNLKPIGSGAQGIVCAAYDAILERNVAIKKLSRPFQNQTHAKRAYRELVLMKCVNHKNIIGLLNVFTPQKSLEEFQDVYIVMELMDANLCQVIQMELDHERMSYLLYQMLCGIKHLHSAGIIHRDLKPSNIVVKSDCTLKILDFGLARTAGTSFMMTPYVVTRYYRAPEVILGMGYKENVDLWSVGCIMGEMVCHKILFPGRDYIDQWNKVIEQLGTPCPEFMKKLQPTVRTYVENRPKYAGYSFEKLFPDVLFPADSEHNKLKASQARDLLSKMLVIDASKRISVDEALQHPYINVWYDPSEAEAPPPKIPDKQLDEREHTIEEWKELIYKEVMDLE

SMILES | inhibition at 1 µM [%]
O=C(NC[C@@H](O)c1ccccc1)c1cccc2cnc(N[C@H]3CC[C@H](O)CC3)nc12 [Example 474, 2-[(trans-4-hydroxycyclohexyl)amino]-N-[(2S)-2-hydroxy-2-phenylethyl]quinazoline-8-carboxamide] | 37
CN1CCC(Oc2ccc3cnc(N[C@H]4CC[C@H](O)CC4)nc3c2)CC1 [Example 271, trans-4-({7-[(1-methylpiperidin-4-yl)oxy]quinazolin-2-yl}amino)cyclohexanol] | 41
Cc1nnc(NC(=O)c2cccc3cnc(N[C@H]4CC[C@H](O)CC4)nc23)o1 [Example 323, 2-[(trans-4-hydroxycyclohexyl)amino]-N-(5-methyl-1,3,4-oxadiazol-2-yl)quinazoline-8-carboxamide] | 42
O=C(N[C@H](CO)CC1CCCCC1)c1ccc2cnc(NC3CCC3)nc2c1 [Example 428, 2-(cyclobutylamino)-N-[(1S)-2-cyclohexyl-1-(hydroxymethyl)ethyl]quinazoline-7-carboxamide] | 17
O[C@H]1CC[C@H](Nc2ncc3cccc(OCCN4CCOCC4)c3n2)CC1 [Example 250, trans-4-{[8-(2-morpholin-4-ylethoxy)quinazolin-2-yl]amino}cyclohexanol] | 24

Continued, values first:

inhibition at 1 µM [%] | SMILES
11 | O=C(NCCc1nc2ccccc2[nH]1)c1cccc2cnc(N[C@H]3CC[C@H](O)CC3)nc12 [Example 480, N-[2-(1H-benzimidazol-2-yl)ethyl]-2-[(trans-4-hydroxycyclohexyl)amino]quinazoline-8-carboxamide]
41 | CCn1nc(C)c(CNC(=O)c2cccc3cnc(N[C@H]4CC[C@H](O)CC4)nc23)c1C [Example 496, N-[(1-ethyl-3,5-dimethyl-1H-pyrazol-4-yl)methyl]-2-[(trans-4-hydroxycyclohexyl)amino]quinazoline-8-carboxamide]

Same assay, conditions: @10 uM; read-out: % Inhibition JNK-1

inhibition at 10 µM [%] | SMILES
44 | CC(C)(CO)NC(=O)c1ccc2cnc(NC3CCC3)nc2c1 [Example 439, 2-(cyclobutylamino)-N-(2-hydroxy-1,1-dimethylethyl)quinazoline-7-carboxamide]
26 | O=C(Nc1cccnc1N1CCOCC1)c1cccc2cnc(N[C@H]3CC[C@H](O)CC3)nc12 [Example 324, 2-[(trans-4-hydroxycyclohexyl)amino]-N-(2-morpholin-4-ylpyridin-3-yl)quinazoline-8-carboxamide]
60 | O=C(NCc1ccc(C2CC2)cn1)c1cccc2cnc(N[C@H]3CC[C@H](O)CC3)nc12 [Example 518, N-[(5-cyclopropylpyridin-2-yl)methyl]-2-[(trans-4-hydroxycyclohexyl)amino]quinazoline-8-carboxamide]

Same assay, conditions: JNK-1

SMILES | Ki [nM]
CC(=O)N[C@H]1CC[C@H](Nc2ncc3cccc(OC4CCOCC4)c3n2)CC1 [Example 179, N-(trans-4-{[8-(tetrahydro-2H-pyran-4-yloxy)quinazolin-2-yl]amino}cyclohexyl)acetamide] | 665
O[C@H]1CC[C@H](Nc2ncc3cccc(OCc4ccccn4)c3n2)CC1 [Example 248, trans-4-{[8-(pyridin-2-ylmethoxy)quinazolin-2-yl]amino}cyclohexanol] | 303
O[C@H]1CC[C@H](Nc2ncc3cccc(O[C@H]4CCCN(Cc5ccccn5)C4)c3n2)CC1 [Example 240, trans-4-[(8-{[1-(pyridin-2-ylmethyl)piperidin-3-yl]oxy}quinazolin-2-yl)amino]cyclohexanol] | 79
CC(C)CC(=O)Nc1cc2cc(-c3cn[nH]c3)ccc2cn1 [Example 11, 3-methyl-N-[6-(1H-pyrazol-4-yl)isoquinolin-3-yl]butanamide] | 26
Cc1ccccc1-c1cccc2cnc(N[C@H]3CC[C@H](O)CC3)nc12 [Example 200, trans-4-{[8-(2-methylphenyl)quinazolin-2-yl]amino} cyclohexanol] | 186
O[C@H]1CC[C@H](Nc2ncc3cccc(O[C@@H]4CCOC4)c3n2)CC1 [Example 167, trans-4-({8-[(3R)-tetrahydrofuran-3-yloxy]quinazolin-2-yl}amino)cyclohexanol] | 644
O[C@H]1CC[C@H](Nc2ncc3cccc(OC4CCC(F)(F)CC4)c3n2)CC1 [Example 239, trans-4-({8-[(4,4-difluorocyclohexyl)oxy]quinazolin-2-yl}amino)cyclohexanol] | 67
O=C(CCc1ccc(F)cc1)Nc1cc2cc(-c3cn[nH]c3)ccc2cn1 [Example 44, 3-(4-fluorophenyl)-N-[6-(1H-pyrazol-4-yl)isoquinolin-3-yl]propanamide] | 11
O=C(N[C@@H]1CCC[C@H]1O)c1cccc2cnc(N[C@H]3CC[C@H](O)CC3)nc12 (relative stereo) [Example 136, 2-[(trans-4-hydroxycyclohexyl)amino]-N-[(trans)-2-hydroxycyclopentyl]quinazoline-8-carboxamide] | 257
O=C(CC1CCOCC1)Nc1cc2cc(-c3cn[nH]c3)ccc2cn1 [Example 7, N-[6-(1H-pyrazol-4-yl)isoquinolin-3-yl]-2-(tetrahydro-2H-pyran-4-yl)acetamide] | 20
O=C(Nc1cc2cc(-c3cn[nH]c3)ccc2cn1)C1COc2ccccc2C1 (stereo not drawn) [Example 38, N-[6-(1H-pyrazol-4-yl)isoquinolin-3-yl]chromane-3-carboxamide] | 14
COCCC(=O)Nc1cc2cc(-c3cn[nH]c3)ccc2cn1 [Example 27, 3-methoxy-N-[6-(1H-pyrazol-4-yl)isoquinolin-3-yl]propanamide] | 4
O[C@H]1CC[C@H](Nc2ncc3cccc(OCC4CCOC4)c3n2)CC1 (stereo partly drawn) [Example 249, trans-4-{[8-(tetrahydrofuran-3-ylmethoxy)quinazolin-2-yl]amino}cyclohexanol] | 323
CC(C)(CN1CCOCC1)NC(=O)c1cccc2cnc(N[C@H]3CC[C@H](O)CC3)nc12 [Example 105, N-(1,1-dimethyl-2-morpholin-4-ylethyl)-2-[(trans-4-hydroxycyclohexyl)amino]quinazoline-8-carboxamide] | 703
O=C(CN1Cc2ccccc2C1=O)Nc1cc2cc(-c3cn[nH]c3)ccc2cn1 [Example 25, 2-(1-oxo-1,3-dihydro-2H-isoindol-2-yl)-N-[6-(1H-pyrazol-4-yl)isoquinolin-3-yl]acetamide] | 14
COc1cc2c(cc1CNc1cc3cc(-c4cn[nH]c4)ccc3cn1)N(C)C(=O)CC2 [Example 219, 6-methoxy-1-methyl-7-({[6-(1H-pyrazol-4-yl)isoquinolin-3-yl]amino}methyl)-3,4-dihydroquinolin-2(1H)-one] | 1160
O[C@H]1CC[C@H](Nc2ncc3cccc(OC4CCOCC4)c3n2)CC1 [Example 169, trans-4-{[8-(tetrahydro-2H-pyran-4-yloxy)quinazolin-2-yl]amino}cyclohexanol] | 231

Other lines, results leading:

Ki [nM] | SMILES
525 | O=C(NCCN1CCOCC1)c1ccc2cnc(N[C@H]3CC[C@H](O)CC3)nc2c1 [Example 61, 2-[(trans-4-hydroxycyclohexyl)amino]-N-(2-morpholin-4-ylethyl)quinazoline-7-carboxamide]
447 | CCC[C@@H](CO)NC(=O)c1ccc2cnc(NC3CCC3)nc2c1 [Example 398, 2-(cyclobutylamino)-N-[(1S)-1-(hydroxymethyl)butyl]quinazoline-7-carboxamide]
678 | COCCNC(=O)c1cccc2cnc(N[C@H]3CC[C@H](O)CC3)nc12 [Example 109, 2-[(trans-4-hydroxycyclohexyl)amino]-N-(2-methoxyethyl)quinazoline-8-carboxamide]
130 | O=C(NCC1(O)CCC1)c1cccc2cnc(N[C@H]3CC[C@H](O)CC3)nc12 [Example 129, N-[(1-hydroxycyclobutyl)methyl]-2-[(trans-4-hydroxycyclohexyl)amino]quinazoline-8-carboxamide]
139 | CCC[C@@H](CO)NC(=O)c1ccc2cnc(NC3CCCCC3)nc2c1 [Example 376, 2-(cyclohexylamino)-N-[(1S)-1-(hydroxymethyl)butyl]quinazoline-7-carboxamide]
801 | O=C(NCCCn1cccn1)c1ccc2cnc(N[C@H]3CC[C@H](O)CC3)nc2c1 [Example 339, 2-[(trans-4-hydroxycyclohexyl)amino]-N-[3-(1H-pyrazol-1-yl)propyl]quinazolin-7-carboxamide]
1040 | O=C(NC[C@H]1C[C@@H]1CO)c1ccc2cnc(N[C@H]3CC[C@H](O)CC3)nc2c1 [Example 350, 2-[(trans-4-hydroxycyclohexyl)amino]-N-{[(1S,2S)-2-(hydroxymethyl)cyclopropyl]methyl} quinazoline-7-carboxamide]
643 | CC(=O)N1CCC(CNC(=O)c2ccc3cnc(N[C@H]4CC[C@H](O)CC4)nc3c2)CC1 [Example 91, N-[(1-acetylpiperidin-4-yl)methyl]-2-[(trans-4-hydroxycyclohexyl)amino]quinazoline-7-carboxamide]
82 | C[C@@H](CO)NC(=O)c1cccc2cnc(N[C@H]3CC[C@H](O)CC3)nc12 [Example 122, 2-[(trans-4-hydroxycyclohexyl)amino]-N-[(1S)-2-hydroxy-1-methylethyl]quinazoline-8-carboxamide]
1720 | C[C@@H](CO)NC(=O)c1ccc2cnc(NC3CCCC3)nc2c1 [Example 418, 2-(cyclopentylamino)-N-[(1S)-2-hydroxy-1-methylethyl]quinazoline-7-carboxamide]
637 | O=C(NCCCO)c1ccc2cnc(N[C@H]3CC[C@H](O)CC3)nc2c1 [Example 338, 2-[(trans-4-hydroxycyclohexyl)amino]-N-(3-hydroxypropyl)quinazoline-7-carboxamide]
637 | C[C@@H](CO)NC(=O)c1ccc2cnc(N[C@H]3CC[C@H](O)CC3)nc2c1 [Example 403, 2-[(trans-4-hydroxycyclohexyl)amino]-N-[(1S)-2-hydroxy-1-methylethyl]quinazoline-7-carboxamide]
